{
  "source": "patent US6001812A",
  "about": "“Modulating body/cranial hair growth with derivatives of the α-type melanocyte-stimulating hormone” (Societe L'Oreal S.A., priority 1995, dated 1999)",
  "test_system": "hair follicles",
  "test": "Lengthening and survival of hair follicles maintained in vitro",
  "format": "cell-based",
  "design": "Mean lengthening: unit not given here",
  "description": "Viable in vitro hair follicles were prepared according to the technique described in French Patent Application No. 95-08465, filed Jul. 12, 1995 and assigned to the assignee hereof.\nFrom a scalp biopsy, a rather fine strip of scalp was isolated using a scalpel. The adipose tissue surrounding the follicles was removed with microforceps while avoiding damage to the hair bulb. The follicles were cut out with a scalpel under a microscope in order to separate them from their epidermal and dermal surroundings.\nThe follicles were then cultured in the wells of Costar-type 24-well plates, at the rate of one follicle per well. Each well contained 0.5 ml of Williams' medium E, to which had been added penicillin and streptomycin to a final concentration of 50 IU/ml, glutamine to 2 mM, bovine insulin to 0.01 mg/ml and hydrocortisone to 0.04 mg/ml.\nThe follicles were then measured using a microscope equipped with a micrometric eyepiece.\nAfter 24 hours, the follicles were again measured and those which had lengthened by less than 0.3 divisions of the micrometer, corresponding to 0.16 mm, were discarded.\nThe five (5) following culturing conditions were tested:\nCondition A: Complete Williams' medium E, without peptide.\nCondition B: Complete Williams' medium E+10 mM Ac-LPV-NH2.\nCondition C: Complete Williams' medium E+1 mM Ac-LPV-NH2.\nCondition D: Complete Williams' medium E+0.1 mM Ac-LPV-NH2.",
  "key": {"[1]": {"conditions": "0.1 mM peptide in complete Williams' medium E, day 0"}, "[2]": {"conditions": "0.1 mM peptide in complete Williams' medium E, day 1"}, "[3]": {"conditions": "0.1 mM peptide in complete Williams' medium E, day 4"}, "[4]": {"conditions": "1 mM peptide in complete Williams' medium E, day 0"}, "[5]": {"conditions": "1 mM peptide in complete Williams' medium E, day 1"}, "[6]": {"conditions": "1 mM peptide in complete Williams' medium E, day 11"}, "[7]": {"conditions": "10 mM peptide in complete Williams' medium E, day 0"}, "[8]": {"conditions": "10 mM peptide in complete Williams' medium E, day 1"}, "[9]": {"conditions": "10 mM peptide in complete Williams' medium E, day 12"}, "[10]": {"conditions": "summary of Example 1, versus medium without peptide"}},
  "note": "Where a SMILES comes first, the peptide text is derived from it.",
  "data": [
    {"molecule": "CC(=O)N[C@@H](CCCCN)C(=O)N1CCC[C@H]1C(=O)N[C@H](C(N)=O)C(C)C", "note": "[Acetyl-Lys-Pro-Val-NH2] (Ac-Lys-Pro-Val-NH2)", "values": [
      {"measurement": "% Survival", "setting": "[1]", "result": 100, "unit": "%"},
      {"measurement": "Mean lengthening", "setting": "[1]", "result": 0.00},
      {"measurement": "% Survival", "setting": "[2]", "result": 100, "unit": "%"},
      {"measurement": "Mean lengthening", "setting": "[2]", "result": 0.37},
      {"measurement": "% Survival", "setting": "[3]", "result": 100, "unit": "%"},
      {"measurement": "Mean lengthening", "setting": "[3]", "result": 1.10},
      {"measurement": "% Survival", "setting": "0.1 mM peptide in complete Williams' medium E, day 5", "result": 100, "unit": "%"},
      {"measurement": "% Survival", "setting": "0.1 mM peptide in complete Williams' medium E, day 6", "result": 100, "unit": "%"},
      {"measurement": "% Survival", "setting": "0.1 mM peptide in complete Williams' medium E, day 7", "result": 83, "unit": "%"},
      {"measurement": "% Survival", "setting": "0.1 mM peptide in complete Williams' medium E, day 8", "result": 50, "unit": "%"},
      {"measurement": "% Survival", "setting": "0.1 mM peptide in complete Williams' medium E, day 11", "result": 42, "unit": "%"},
      {"measurement": "% Survival", "setting": "0.1 mM peptide in complete Williams' medium E, day 12", "result": 17, "unit": "%"},
      {"measurement": "% Survival", "setting": "[4]", "result": 100, "unit": "%"},
      {"measurement": "Mean lengthening", "setting": "[4]", "result": 0.00},
      {"measurement": "% Survival", "setting": "[5]", "result": 100, "unit": "%"},
      {"measurement": "Mean lengthening", "setting": "[5]", "result": 0.38},
      {"measurement": "% Survival", "setting": "1 mM peptide in complete Williams' medium E, day 4", "result": 100, "unit": "%"},
      {"measurement": "% Survival", "setting": "1 mM peptide in complete Williams' medium E, day 5", "result": 100, "unit": "%"},
      {"measurement": "% Survival", "setting": "1 mM peptide in complete Williams' medium E, day 6", "result": 100, "unit": "%"},
      {"measurement": "% Survival", "setting": "1 mM peptide in complete Williams' medium E, day 7", "result": 91, "unit": "%"},
      {"measurement": "% Survival", "setting": "1 mM peptide in complete Williams' medium E, day 8", "result": 55, "unit": "%"},
      {"measurement": "% Survival", "setting": "[6]", "result": 36, "unit": "%"},
      {"measurement": "Mean lengthening", "setting": "[6]", "result": 1.70},
      {"measurement": "% Survival", "setting": "[7]", "result": 100, "unit": "%"},
      {"measurement": "Mean lengthening", "setting": "[7]", "result": 0.00},
      {"measurement": "% Survival", "setting": "[8]", "result": 100, "unit": "%"},
      {"measurement": "Mean lengthening", "setting": "[8]", "result": 0.38},
      {"measurement": "% Survival", "setting": "10 mM peptide in complete Williams' medium E, day 4", "result": 100, "unit": "%"},
      {"measurement": "% Survival", "setting": "10 mM peptide in complete Williams' medium E, day 5", "result": 100, "unit": "%"},
      {"measurement": "% Survival", "setting": "10 mM peptide in complete Williams' medium E, day 6", "result": 100, "unit": "%"},
      {"measurement": "% Survival", "setting": "10 mM peptide in complete Williams' medium E, day 7", "result": 100, "unit": "%"},
      {"measurement": "% Survival", "setting": "10 mM peptide in complete Williams' medium E, day 8", "result": 92, "unit": "%"},
      {"measurement": "% Survival", "setting": "10 mM peptide in complete Williams' medium E, day 11", "result": 83, "unit": "%"},
      {"measurement": "% Survival", "setting": "[9]", "result": 42, "unit": "%"},
      {"measurement": "Mean lengthening", "setting": "[9]", "result": 2.40},
      {"measurement": "Effect on lengthening of the cultured hair follicles (in words)", "setting": "[10]", "result": "promoted the lengthening"},
      {"measurement": "Effect on survival time of the cultured hair follicles (in words)", "setting": "[10]", "result": "increased their survival time"}
    ]}
  ]
}
